Measurements taken from patent US9750738B2, “Arylpiperazine opioid receptor antagonists” (RESEARCH TRIANGLE INSTITUTE, priority 2010, dated 2017).

What was measured:
[1] = target: T1, cloned human κ opioid receptor (Homo sapiens, UniProt P41145); assay: Inhibition of U69,593-stimulated [35S]GTPγS binding; assay type: biochemical; details: antagonism of agonist U69,593, [35S]GTPγS binding; for Kb: read-out: κ, U69,593 ke
T1 construct: expressed in transfected cells

[2] = target: T2, cloned human δ opioid receptor (Homo sapiens, UniProt P41143); assay: Inhibition of DPDPE-stimulated [35S]GTPγS binding; assay type: biochemical; details: antagonism of agonist DPDPE; for Kb: read-out: δ, DPDPE Ke
T2 construct: expressed in transfected cells
T2 sequence (P41143 whole entry): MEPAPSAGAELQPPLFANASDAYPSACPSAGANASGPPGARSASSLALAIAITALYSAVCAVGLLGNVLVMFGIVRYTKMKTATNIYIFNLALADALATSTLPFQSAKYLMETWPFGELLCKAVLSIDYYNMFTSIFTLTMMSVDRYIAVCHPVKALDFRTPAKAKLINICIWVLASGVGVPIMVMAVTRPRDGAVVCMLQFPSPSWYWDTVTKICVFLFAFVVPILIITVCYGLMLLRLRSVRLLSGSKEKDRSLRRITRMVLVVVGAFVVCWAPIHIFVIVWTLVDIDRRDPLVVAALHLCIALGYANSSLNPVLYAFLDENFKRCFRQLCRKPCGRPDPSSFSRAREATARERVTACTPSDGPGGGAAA

[3] = target: T3, cloned human μ opioid receptor (Homo sapiens, UniProt P35372); assay: Inhibition of DAMGO-stimulated [35S]GTPγS binding; assay type: biochemical; details: antagonism of agonist DAMGO; for Kb: read-out: μ, DAMGO Ke
T3 construct: expressed in transfected cells
T3 sequence (P35372 whole entry): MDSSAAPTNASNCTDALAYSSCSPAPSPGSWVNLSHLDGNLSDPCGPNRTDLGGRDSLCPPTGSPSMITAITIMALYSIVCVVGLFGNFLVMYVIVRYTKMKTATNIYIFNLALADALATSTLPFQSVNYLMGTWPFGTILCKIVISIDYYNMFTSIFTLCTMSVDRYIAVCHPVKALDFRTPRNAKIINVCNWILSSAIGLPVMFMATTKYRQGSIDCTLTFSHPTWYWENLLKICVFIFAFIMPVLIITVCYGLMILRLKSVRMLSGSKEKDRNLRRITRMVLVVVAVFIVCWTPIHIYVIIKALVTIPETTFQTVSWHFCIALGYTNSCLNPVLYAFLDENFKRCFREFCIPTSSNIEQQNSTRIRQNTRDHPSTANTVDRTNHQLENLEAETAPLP

T1 sequence (P41145 whole entry): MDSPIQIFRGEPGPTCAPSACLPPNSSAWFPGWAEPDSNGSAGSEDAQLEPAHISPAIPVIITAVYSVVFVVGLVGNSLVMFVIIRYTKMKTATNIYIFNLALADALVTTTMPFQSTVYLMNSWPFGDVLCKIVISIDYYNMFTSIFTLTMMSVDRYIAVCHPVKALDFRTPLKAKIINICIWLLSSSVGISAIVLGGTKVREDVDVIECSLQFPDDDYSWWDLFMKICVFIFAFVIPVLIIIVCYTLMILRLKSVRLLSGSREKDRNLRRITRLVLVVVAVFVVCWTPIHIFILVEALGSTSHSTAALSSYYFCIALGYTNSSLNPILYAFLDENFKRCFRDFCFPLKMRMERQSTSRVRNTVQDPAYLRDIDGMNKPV

Structure (SMILES) | Kb [1] [nM] | Kb [2] [nM] | Kb [3] [nM] | other results
CCC1CN(CCCc2ccccc2)CCN1c1cccc(O)c1.Cl.Cl (stereo not shown) | – | – | – | melting point: 161 to 166 °C
C[C@H]1CN(C)CC[C@@]1(C)c1cccc(O)c1 [Compound 2b, reference compound] | – | – | – | κ, U69,593 ke [1]: 155 ± 24 nM; δ, DPDPE Ke [2]: 680 ± 240 nM; μ, DAMGO Ke [3]: 29 ± 3 nM
CC1CN(CCCc2ccccc2)CCC1(C)c1cccc(O)c1 (stereo not shown) [Compound 2c, N-phenylpropyl 3,4-dimethyl-4-(3-hydroxyphenyl)piperidine, reference compound] | 0.88 ± 0.2 | 0.9 ± 0.3 | 0.1 ± 0.02 | –
Oc1cccc(N2CCN(CCCc3ccccc3)CC2)c1 [Compound 5a, 3-(4-Phenylpropylpiperazin-1-yl)phenol] | 15 ± 3 | 34 ± 6 | 8.5 ± 1.4 | –
C[C@H]1CN(CCCc2ccccc2)CCN1c1cccc(O)c1 [Compound 5b, (S)-3-(2-Methyl-4-phenylpropylpiperazin-1-yl)phenol] | 4.09 | 13.4 | 0.88 | –
C[C@@H]1CN(CCCc2ccccc2)CCN1c1cccc(O)c1 [Compound 5c, (R)-3-(2-Methyl-4-phenylpropylpiperazin-1-yl)phenol] | 1.5 ± 0.4 | 7 ± 2 | 1 ± 0.2 | –
CC1CN(CCCc2ccccc2)CC(C)N1c1cccc(O)c1 (stereo not shown) [Compound 5d, (Z)-3-(2,6-Dimethyl-4-(3-phenylpropyl)piperazin-1-yl)phenol] | 3 | 4300 | – | –
C[C@H]1CN(c2cccc(O)c2)[C@@H](C)CN1CCCc1ccccc1 [Compound 5e, 3-[(2S,5S)-2,5-Dimethyl-4-(3-phenylpropyl)piperazin-1-yl]phenol] | 7 ± 0.3 | – | – | –
C[C@H]1CN(C)CCN1c1cccc(O)c1 [Compound 5f, (S)-3-(2,4-Dimethylpiperazin-1-yl)phenol] | 193 ± 19 | – | 508 ± 26 | –
C[C@@H]1CN(c2cccc(O)c2)[C@@H](C)CN1CCCc1ccccc1 [Compound 5g, 3-((2S,5R)-2,5-Dimethyl-4-(3-phenylpropyl)piperazin-1-yl)phenol] | 4.2 ± 0.8 | 55 ± 3 | 6.1 ± 1.7 | –
C[C@@H]1CN(CCCc2ccccc2)[C@@H](C)CN1c1cccc(O)c1 [Compound 5h, 3-((2R,5S)-2,5-Dimethyl-4-(3-phenylpropyl)piperazin-1-yl)phenol] | 26 ± 7 | 179 ± 68 | 18 ± 4 | –
CC(C)[C@H](N)CN1CCN(c2cccc(O)c2)[C@@H](C)C1 [Compound 5i, 3-{(2S)-4-[(2S)-2-Amino-3-methylbutyl]-2-methylpiperazin-1-yl}phenol] | 10 | 55 | 2 | –
CC(C)[C@@H](CN1CCN(c2cccc(O)c2)[C@@H](C)C1)NC(=O)[C@H]1Cc2ccc(O)cc2CN1 [Compound 5j, (3R)-7-Hydroxy-N-[(1S)-1-{[(3S)-4-(3-hydroxyphenyl)-3-methylpiperazin-1-yl]methyl}-2-methylpropyl]-1,2,3,4-tetrahydroisoquinoline-3-carboxamide] | 2.7 ± 0.1 | 274 ± 48 | 22 ± 4 | –
C[C@@H](N)CN1CCN(c2cccc(O)c2)[C@@H](C)C1 [Compound 31b, 3-{(2S)-4-[(2R)-2-amino-propyl]-2-methylpiperazin-1-yl}phenol] | – | – | – | melting point: 210 to 215 °C
